Data from ChEMBL document CHEMBL4431358, “Flavonoids and biphenylneolignans with anti-inflammatory activity from the stems of Millettia griffithii” (Bioorg Med Chem Lett, 2016).
Active and inactive are the calls of the source. The rule behind the calls is not given here.

Assays:
RAW264.7 [1] = assay: Cytotoxicity against mouse RAW264.7 cells assessed as reduction in cell viability at 100 uM after 72 hrs by MTT assay; type: cell-based; conditions: raw264.7, 72 h
RAW264.7 [2] = assay: Antiinflammatory activity in mouse RAW264.7 cells assessed as inhibition of LPS-induced nitric oxide production preincubated for 1 hr followed by LPS stimulation for 24 hrs by Griess method; type: functional, cell-based
RAW264.7 [3] = assay: Antiinflammatory activity in mouse RAW264.7 cells assessed as inhibition of LPS-induced nitric oxide production at 50 uM preincubated for 1 hr followed by LPS stimulation for 24 hrs by Griess method; type: functional
RAW264.7 [4] = assay: Inhibition COX2 mRNA expression levels in LPS-induced mouse RAW264.7 cells at 1 to 4 uM by RT-PCR analysis; type: functional, cell-based
RAW264.7 [5] = assay: Inhibition iNOS protein expression levels in LPS-induced mouse RAW264.7 cells at 1 to 4 uM by Western blot analysis; type: functional, cell-based
RAW264.7 [6] = assay: Inhibition iNOS mRNA expression levels in LPS-induced mouse RAW264.7 cells at 1 to 4 uM by RT-PCR analysis; type: functional, cell-based
RAW264.7 [7] = assay: Inhibition COX2 protein expression levels in LPS-induced mouse RAW264.7 cells at 1 to 4 uM by Western blot analysis; type: functional, cell-based
RAW264.7 [8] = assay: Inhibition iNOS protein expression levels in LPS-induced mouse RAW264.7 cells at 4 uM by Western blot analysis; type: functional, cell-based
RAW264.7 [9] = assay: Inhibition iNOS mRNA expression levels in LPS-induced mouse RAW264.7 cells at 4 uM by RT-PCR analysis; type: functional, cell-based

COC1=CC(=O)C(CC=C(C)C)(CC=C(C)C)C2=C1C(=O)C[C@@H](c1ccccc1)O2
Activity (RAW264.7 [1]): Non-Toxic
IC50 (RAW264.7 [2]): 20.4 µM
inhibition at 50 µM (RAW264.7 [3]): > 50%

COC1=CC(=O)C(CC=C(C)C)(CC=C(C)C)C(=O)/C1=C(N)\C=C\c1ccccc1
inhibition (RAW264.7 [4]): inactive
inhibition (RAW264.7 [5]): Active
inhibition (RAW264.7 [6]): Active
Activity (RAW264.7 [1]): Non-Toxic
IC50 (RAW264.7 [2]): 2.1 µM
inhibition (RAW264.7 [7]): inactive
inhibition at 50 µM (RAW264.7 [3]): > 50%

CC(=N)NCc1cccc(CN)c1
inhibition (RAW264.7 [8]): Active
inhibition (RAW264.7 [9]): Active

COc1cc(OC)c2c(=O)c(-c3cc(OC)c(OCC=C(C)C)cc3OC)coc2c1
Activity (RAW264.7 [1]): Non-Toxic
IC50 (RAW264.7 [2]): 35.7 µM
inhibition at 50 µM (RAW264.7 [3]): > 50%
